Assay [1] deals with lysozyme. The assay is described as follows: Standard activity assay of lysozyme liberated from the CO2-processed polymer extrudate. Particulars: Example 6: poly(D,L-lactic acid) MW 71,000 : enzyme ca. 20:1 w/w, CO2 ca. 35° C., 300 bar; compared to lysozyme that has not undergone processing. Type of assay: biochemical. How it is done: (§1) Poly(D,L-lactic acid) (MW 71,000) and lysozyme enzyme powder are added to a high pressure autoclave at a defined ratio (ca. 20:1 weight for weight). The autoclave is charged with carbon dioxide at a defined temperature and pressure (ca. 35° C., 300 bar) sufficient to ensure plasticization of the polymer by carbon dioxide and the contents are mixed together. Discharging of the contents into a second autoclave at atmospheric pressure, through a longer angled nozzle, yields a solid fibrous-mesh product, containing lysozyme, of similar morphology to Example 1. Upon liberation from the polymer the biological activity of lysozyme is unaffected by the carbon dioxide processing compared to lysozyme that has not undergone processing. Standard activity assays described in the literature are used to determine the lysozyme activity.

For assay [2], the system named is ribonuclease. The assay is described as follows: Standard activity assay of ribonuclease liberated from the CO2-processed polymer extrudate. The settings on record: Example 5: poly(D,L-lactic acid) MW 71,000 : enzyme ca. 20:1 w/w, CO2 ca. 35° C., 300 bar; compared to ribonuclease that has not undergone processing. The assay is classed as biochemical. How it is done: as §1, with “ribonuclease” for “lysozyme”, “ribonuclease,” for “lysozyme,”

On to lysozyme, for which the “biological activity of lysozyme upon liberation from the polymer” value in assay [1] is “unaffected”.

Turning to ribonuclease, the “biological activity of ribonuclease upon liberation from the polymer” value in assay [2] was “unaffected”.

The values are drawn from patent publication US20070254035A1, “Preparing Active Polymer Extrudates” (priority 2003, published 2007).
